Measurements: patent publication US20140228440A1, “1-AMINO-ALKYLCYCLOHEXANE DERIVATIVES FOR THE TREATMENT OF INFLAMMATORY SKIN DISEASES” (MERZ PHARMA GmbH & CO. KGaA, priority 2008, published 2014)

Key:
[1] = system: Propionibacterium acnes ATCC 11828; assay: MIC and MBC by the agar dilution method; assay type: cell-based
Description: To assess the anti-microbial potency of Neramexane against acne relevant bacterias the minimal inhibitory concentration (MIC) and minimal bactericidal concentration (MBC) against the following bacterias is established: The MICs of the samples are determined using the agar dilution method based on DIN 58940. Petri dishes of 5.5 cm diameter are poured with 2.5 ml of freshly prepared Mueller-Hinton agar (Merck company, Cat-No 1.05437) or Wilkins-Chalgren-Agar (Oxoid company, Cat-No CM643), maintained in liquid form at 50° C., to which the sample dilutions at various concentrations have been added at 50.0 vol.-%. To prepare the starting sample dilutions, a 12.5%, 3.12% suspension of the respective sample solution is prepared with Aqua purificata. From these stock-solutions, further dilutions are prepared with Aqua purificata. All test compounds are adjusted to pH 5.5. For test product no. 1, separate dilutions adjusted to pH 6.0 and pH 7.4 are also prepared. For inoculation, 1 μl of the respective germ suspension is placed on the centre of each agar plate. After drying, inoculated plates are incubated at 36.0±2.0° C. The basis for the length of incubation period is the respective growth control cultivated in parallel. The test microbe suspension is prepared by inoculating a few individual colonies of the respective bacteria into sterile saline solution until a turbidity corresponding to the McFarland standard 1.0 (approximately 10^8 cfu/ml) is reached. After that, the test microbe suspensions are further diluted 1:10 with saline solution and the microbial counts (see Table 21) are determined by the surface spread method using a spiral plater. The agar plates are incubated under the conditions given in Table 22 and subsequently evaluated. The MIC-values as given represent the lowest concentration of the active substance at which there is no macroscopically visible growth. Minimal, barely visible growth or few small individual colonies are evaluated as inhibition. [table] All negative tests of the determination of the minimal bactericial concentration are the basis of verification of remaining germs, the inoculated agar segments are cut and put in Mueller-Hinton-Bouillon (germ 1) or Wilkins-Chalgren-Bouillon (germs 2-4). After an adequate incubation period at 36.0±2.0° C. (as judged from a control without test compound), the tests are checked manually on microbial growth (=turbidity) and the minimal bactericidal concentration is determined. MBC indicates the concentration without marked turbidity. Grown germs are checked for identity to rule out unspecific contaminations. The following results are summarized and tabulated: • a) Results of the Minimal Inhibitory Concentration (MIC)* • b) Results of the Minimal Bactericidal Concentration (MBC) *The MIC is the concentration without macroscopical growth. Scarcely apparent, minimum growth or few single colonies are not considered. The controls must have a respectively good developed growth. There must be no growth on the agar plates for the sterile control. The growth of bacteria is indicated for the duplicate plates by a +(i.e., growth) or a −(i.e., no growth), +− indicates weak growth on both plates or growth on one plate and no growth on the other plate. All bacteria show appropriate growth on the respective control plate not containing any test compound. No influence of the used diluent (Aqua purifacata) was observed. No contamination is observed on the control-plates.

dermal application sites = assay: Local tolerability of topical formulation, 14 days of daily dermal treatment; assay type: in vivo, Göttingen minipigs
Description: The objective of this study is to evaluate the local tolerance of Neramexane mesylate in a topical formulation at different dose levels after 14 days of daily dermal treatment to minipigs.
The study is performed in 4 female Gottingen SPF minipigs (from Ellegaard Gottingen Minipigs Aps). Each animal has 5 application sites (25 cm^2) marked on the back and is dosed for 8 hours each day. Each test site is used for the same test item or placebo throughout the study. The test group is treated with Neramexane mesylate at the following concentrations: 0, 0.5, 2.5, 5.0 and 10.0% (w/w).
Clinical signs are recorded 2-4 hours post start of each treatment and the local dermal reactions (erythema, oedema) are evaluated prior to treatment. Body weight is recorded weekly (and also on Day 1 and at necropsy).

[2] = final concentration 0.08 %, pH 5.5
[3] = final concentration 0.08 %, pH 6.0
[4] = final concentration 0.16 %, pH 5.5
[5] = final concentration 0.16 %, pH 6.0
[6] = final concentration 0.16 %, pH 7.4
[7] = final concentration 0.31 %, pH 5.5
[8] = final concentration 0.31 %, pH 6.0
[9] = final concentration 0.31 %, pH 7.4
[10] = final concentration 0.63 %, pH 5.5
[11] = final concentration 0.63 %, pH 6.0
[12] = final concentration 0.63 %, pH 7.4
[13] = final concentration 1.56 %, pH 5.5
[14] = final concentration 1.56 %, pH 6.0
[15] = final concentration 1.56 %, pH 7.4
[16] = final concentration 2.50 %, pH 5.5
[17] = final concentration 2.50 %, pH 6.0
[18] = final concentration 2.50 %, pH 7.4
[19] = final concentration 3.13 %, pH 5.5
[20] = final concentration 3.13 %, pH 6.0
[21] = final concentration 3.13 %, pH 7.4
[22] = final concentration 6.25 %, pH 5.5
[23] = final concentration 6.25 %, pH 6.0
[24] = final concentration 6.25 %, pH 7.4
[25] = 0.5, 2.5, 5.0 and 10.0% (w/w), dermal, 14 days

In the case of `CC1(C)CC(C)(C)CC(C)(N)C1.CS(=O)(=O)O` [Neramexane mesylate], the “growth of bacteria on duplicate plates (MIC determination)” value (“growth of bacteria on duplicate plates” for short) ([1]; final concentration 0.01 %, pH 5.5) is reported as “+ +”, the “growth of bacteria on duplicate plates” value ([1]; final concentration 0.01 %, pH 6.0) is reported as “+ +” and the “growth of bacteria on duplicate plates” value ([1]; final concentration 0.01 %, pH 7.4) is reported as “+ +”. The “growth of bacteria on duplicate plates” value ([1]; final concentration 0.04 %, pH 5.5) was “+ +”, the “growth of bacteria on duplicate plates” value ([1]; final concentration 0.04 %, pH 6.0) was “+ +” and the “growth of bacteria on duplicate plates” value ([1]; final concentration 0.04 %, pH 7.4) was “+ +”. The “growth of bacteria (MBC determination)” value [1, 2] was “+ +”, the “growth of bacteria on duplicate plates” value [1, 2] was “− −” and the “growth of bacteria (MBC determination)” value [1, 3] was “+ +”. For the same compound, the “growth of bacteria on duplicate plates” value [1, 3] was “− −”, the “growth of bacteria on duplicate plates” value ([1]; final concentration 0.08 %, pH 7.4) was “+ +” and the “growth of bacteria (MBC determination)” value [1, 4] was “+ +”. The “growth of bacteria on duplicate plates” value [1, 4] was “− −”, the “growth of bacteria (MBC determination)” value [1, 5] was “+ +” and the “growth of bacteria on duplicate plates” value [1, 5] was “− −”. The “growth of bacteria (MBC determination)” value [1, 6] was “+ +”, the “growth of bacteria on duplicate plates” value [1, 6] was “− −” and the “growth of bacteria (MBC determination)” value [1, 7] was “+ +”. The “growth of bacteria on duplicate plates” value [1, 7] was “− −”, the “growth of bacteria (MBC determination)” value [1, 8] was “+ +” and the “growth of bacteria on duplicate plates” value [1, 8] was “− −”. The “growth of bacteria (MBC determination)” value [1, 9] was “+ +”, the “growth of bacteria on duplicate plates” value [1, 9] was “− −” and the “growth of bacteria (MBC determination)” value [1, 10] was “+ +”. The “growth of bacteria on duplicate plates” value [1, 10] was “− −”, the “growth of bacteria (MBC determination)” value [1, 11] was “− −” and the “growth of bacteria on duplicate plates” value [1, 11] was “− −”. For the same compound, the “growth of bacteria (MBC determination)” value [1, 12] was “+ +”, the “growth of bacteria on duplicate plates” value [1, 12] was “− −” and the “growth of bacteria (MBC determination)” value [1, 13] was “− −”. For the same compound, the “growth of bacteria on duplicate plates” value [1, 13] was “− −”, the “growth of bacteria (MBC determination)” value [1, 14] was “− −” and the “growth of bacteria on duplicate plates” value [1, 14] was “− −”. The “growth of bacteria (MBC determination)” value [1, 15] was “− −”, the “growth of bacteria on duplicate plates” value [1, 15] was “− −” and the “growth of bacteria (MBC determination)” value [1, 16] was “− −”. For the same compound, the “growth of bacteria on duplicate plates” value [1, 16] was “− −”, the “growth of bacteria (MBC determination)” value [1, 17] was “− −” and the “growth of bacteria on duplicate plates” value [1, 17] was “− −”. For the same compound, the “growth of bacteria (MBC determination)” value [1, 18] was “− −”, the “growth of bacteria on duplicate plates” value [1, 18] was “− −” and the “growth of bacteria (MBC determination)” value [1, 19] was “− −”. The “growth of bacteria on duplicate plates” value [1, 19] was “− −”, the “growth of bacteria (MBC determination)” value [1, 20] was “− −” and the “growth of bacteria on duplicate plates” value [1, 20] was “− −”. For the same compound, the “growth of bacteria (MBC determination)” value [1, 21] was “− −”, the “growth of bacteria on duplicate plates” value [1, 21] was “− −” and the “growth of bacteria (MBC determination)” value [1, 22] was “− −”. For the same compound, the “growth of bacteria on duplicate plates” value [1, 22] was “− −”, the “growth of bacteria (MBC determination)” value [1, 23] was “− −” and the “growth of bacteria on duplicate plates” value [1, 23] was “− −”. The “growth of bacteria (MBC determination)” value [1, 24] was “− −”, the “growth of bacteria on duplicate plates” value [1, 24] was “− −” and the MBC ([1]; pH 5.5) was 1.56%. The MIC ([1]; pH 5.5) was 0.08%, the MBC ([1]; pH 6.0) was 0.63% and the MIC ([1]; pH 6.0) was 0.08%. The MBC ([1]; pH 7.4) was 1.56%, the MIC ([1]; pH 7.4) was 0.16% and the “test item related changes (conclusion)” value (dermal application sites; 0.5%, 2.5%, 5% and 10% in a topical formulation, 14 Days) was “no test item related changes”. For the same compound, the “clinical signs and body weight gain” value (dermal application sites; [25]) was “No test item related changes are observed”, the “dermal skin reactions (erythema, oedema)” value (dermal application sites; [25]) was “no test item related dermal skin reactions are observed” and the gross necropsy (dermal application sites; [25]) was “no macroscopic changes are observed”. The “histopathology evaluation of the dermal application sites” value (dermal application sites; [25]) was “no treatment-related macroscopic or microscopic findings”.
